Values joined by “and” are separate entries in the source; they are usually repeats but may differ in a detail not shown here. Equal entries are not always repeated. Blank lines part the entries; values can stand above or below the compound they belong to.
What was measured:
hCA IX [1] = molecular target: T1, hCA IX (Homo sapiens, UniProt Q16790); set-up: made in house; method as in Bonardi et al. [29,30]; settings: stopped-flow CO2 hydrase assay; Table S1 footnote b; ref Bonardi et al. [29,30]; cited from earlier work
hCA XII = hCA XII (Homo sapiens, UniProt O43570); test: Stopped-flow CO2 hydrase assay, hCA XII; settings: for SI CA I/XII / SI CA II/XII: selectivity index, ratio of KIs
hCA XII, sequence (O43570 25-354): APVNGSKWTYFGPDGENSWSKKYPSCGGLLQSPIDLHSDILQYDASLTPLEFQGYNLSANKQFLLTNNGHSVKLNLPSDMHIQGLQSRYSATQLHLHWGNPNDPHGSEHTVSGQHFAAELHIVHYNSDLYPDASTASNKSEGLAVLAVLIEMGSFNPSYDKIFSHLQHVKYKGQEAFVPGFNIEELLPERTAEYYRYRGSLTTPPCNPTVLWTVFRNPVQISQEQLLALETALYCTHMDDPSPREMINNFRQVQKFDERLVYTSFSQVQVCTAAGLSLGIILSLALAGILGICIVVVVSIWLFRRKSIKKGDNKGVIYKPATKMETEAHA
Description: (§3) The uncatalyzed rates were determined in the same manner and subtracted from the total observed rates. Stock solutions of inhibitor (0.1 mM) were prepared in distilled-deionized water and dilutions up to 0.01 nM were done thereafter with the assay buffer. […] The inhibition constants were obtained by nonlinear least-squares methods using PRISM 3 and the Cheng–Prusoff equation, as reported earlier,[39] and represent the mean from at least three different determinations.

hCA IV = hCA IV (Homo sapiens, UniProt P22748); test: Stopped-flow CO2 hydrase assay, hCA IV; settings: for SI CA I/IV / SI CA II/IV: selectivity index, ratio of KIs
hCA IV, sequence (P22748 19-312): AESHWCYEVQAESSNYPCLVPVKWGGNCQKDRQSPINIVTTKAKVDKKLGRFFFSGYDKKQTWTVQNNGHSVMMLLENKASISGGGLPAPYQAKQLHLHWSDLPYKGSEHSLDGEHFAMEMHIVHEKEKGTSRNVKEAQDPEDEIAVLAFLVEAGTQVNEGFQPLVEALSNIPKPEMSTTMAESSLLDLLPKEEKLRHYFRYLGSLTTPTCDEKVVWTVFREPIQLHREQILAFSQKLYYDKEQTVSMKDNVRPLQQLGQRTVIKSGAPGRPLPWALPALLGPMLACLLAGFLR
Description: as §3

hCA IX [2] = molecular target: T1, hCA IX; test: Stopped-flow CO2 hydrase assay, hCA IX; settings: selectivity index, ratio of KIs
Description: as §3

hCA II = hCA II (Homo sapiens, UniProt P00918); test: Stopped-flow CO2 hydrase assay, hCA II; settings: for SI CA I/II: selectivity index, ratio of KIs
Description: as §3

[3] = tested on: rat model of arthritis induced by the intra-articular injection of complete Freund's adjuvant (CFA); test: Incapacitance test, CFA-induced arthritis; format: in vivo; settings: for reduction of spontaneous pain, Incapacitance test: single per os, 1 to 30 mg/kg, day 14 after CFA
Description: (§1) Articular damage was induced by injection of Complete Freund’s Adjuvant (CFA; Sigma-Aldrich, St Louis, MO, USA), containing 1 mg/mL of heat-killed and dried Mycobacterium tuberculosis in paraffin oil and mannide monooleate, into the tibiotarsal joint.[50] Briefly, the rats were lightly anesthetized with 2% isoflurane, the left leg skin was sterilized with 75% ethyl alcohol, and the lateral malleolus was located by palpation. A 28-gauge needle was then inserted vertically to penetrate the skin and turned distally for insertion into the articular cavity at the gap between the tibiofibular and tarsal bone until a distinct loss of resistance was felt. A volume of 50 μL of CFA was then injected (day 0). Control rats received 50 μL of saline solution (day 0) in the tibiotarsal joint.
(§2) The hybrid derivatives 26, 29, 30, and 31 (1, 10, and 30 mg/kg) were suspended in a 1% solution of carboxymethylcellulose (CMC) sodium salt and acutely per os administered starting from day 14 after CFA i.a. injection, when arthritis was well established. The H2S releaser 3 and CAI 15 were also administered alone or in coadministration at the equimolar dose of compound 30 30 mg/kg (13.23 and 17.71 mg/kg, respectively). The antihypersensitivity effects were evaluated over time by the Paw pressure and Incapacitance tests.
Weight-bearing changes were measured using an incapacitance apparatus (Linton Instrumentation, Norfolk, U.K.) to detect changes in postural equilibrium after a hind limb injury.[53],[54] Rats were trained to stand on their hind paws in a box with an inclined plane (65° from horizontal). This box was placed above the incapacitance apparatus. This allowed us to independently measure the weight that the animal applied on each hind limb. The value reported for each animal is the mean of five consecutive measurements. In the absence of hind limb injury, rats applied an equal weight on both hind limbs, indicating postural equilibrium, whereas an unequal distribution of weight on the hind limbs indicated a monolateral decreased pain threshold. Data are expressed as the difference between the weight applied to the limb contralateral to the injury and the weight applied to the ipsilateral limb (Δ weight).

[4] = tested on: rat model of arthritis induced by the intra-articular injection of complete Freund's adjuvant (CFA); test: Paw pressure test, CFA-induced arthritis; format: in vivo; settings: for antihyperalgesic effect, Paw pressure test, 1 mg/kg: 1 mg/kg per os; for weight tolerated on the ipsilateral paw, Paw pressure test, 10 and 30 mg/kg: 10 and 30 mg/kg per os, from 15 min up to 45 min after treatment, vs CFA-treated animals
Description: as §1, §2
The nociceptive threshold of rats was determined with an analgesimeter (Ugo Basile, Varese, Italy), according to the method described by Leighton et al.[51] and Maresca et al.,[52] (doi: 10.1111/jphp.12828). Briefly, a constantly increasing pressure was applied to a small area of the dorsal surface of the hind paw using a blunt conical probe by a mechanical device. Mechanical pressure was increased until vocalization or a withdrawal reflex occurred while rats were lightly restrained. Vocalization or withdrawal reflex thresholds were expressed in grams. […]

hCA I = hCA I (Homo sapiens, UniProt P00915); test: Stopped-flow CO2 hydrase assay, hCA I
hCA I, sequence (P00915 whole entry): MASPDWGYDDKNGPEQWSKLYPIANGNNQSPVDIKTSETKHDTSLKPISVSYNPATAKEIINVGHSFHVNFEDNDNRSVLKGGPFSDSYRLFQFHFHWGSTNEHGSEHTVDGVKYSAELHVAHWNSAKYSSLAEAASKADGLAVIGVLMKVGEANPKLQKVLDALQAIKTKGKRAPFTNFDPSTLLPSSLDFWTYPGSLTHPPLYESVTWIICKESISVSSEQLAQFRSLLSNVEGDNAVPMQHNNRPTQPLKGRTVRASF
Description: as §3

rats = test: Toxicity and Irwin test; format: in vivo, rat; set-up: key to Irwin test: Spontaneous activity / Irwin test: Straightening reflex / Irwin test: Hypo-hyperthermia / Irwin test: Cleaning / Irwin test: Curiosity / Irwin test: Reactivity / Irwin test: Convulsions: observer's semiquantitative score (0 to +4, −4 to 0, or −4 to +4); settings: 30 mg/kg; for Irwin test: Cyanosis / Irwin test: Exolphthalmos / Irwin test: Flush / Irwin test: Lacrimation / Irwin test: Pallor / Irwin test: Piloerection / Irwin test: Salivation / Irwin test: Writhing / Irwin test: Palpebral opening / Irwin test: Hypo-hyperthermia: Autonomic signes; for Irwin test: Cyanosis / Irwin test: Exolphthalmos / Irwin test: Flush / Irwin test: Lacrimation / Irwin test: Pallor / Irwin test: Piloerection / Irwin test: Salivation / Irwin test: Writhing / Irwin test: Passivity / Irwin test: Vocalization / Irwin test: Ataxia / Irwin test: Stereotipies / Irwin test: Straub tail / Irwin test: Tremors / Irwin test: Delayed death (48 h) / Irwin test: Immediate death: limits 0 - 4; for Irwin test: Palpebral opening / Irwin test: Cleaning / Irwin test: Curiosity / Irwin test: Reactivity / Irwin test: Spontaneous activity / Irwin test: Straightening reflex / Irwin test: Palpebral reflex / Irwin test: Convulsions: limits 4 - 0; for Irwin test: Hypo-hyperthermia: limits -4/+4; for Irwin test: Passivity / Irwin test: Vocalization / Irwin test: Cleaning / Irwin test: Curiosity / Irwin test: Reactivity / Irwin test: Spontaneous activity: Behaviour; for Irwin test: Ataxia / Irwin test: Stereotipies / Irwin test: Straightening reflex: Movement; for Irwin test: Physical strenght: Muscolar tone, limits 4 – 0; for Irwin test: Palpebral reflex: Reflexes; for Irwin test: Straub tail / Irwin test: Tremors / Irwin test: Convulsions: S.N.C. excitement; for Irwin test: Delayed death (48 h) / Irwin test: Immediate death: Toxicity
Description: Toxicity was evaluated after a single acute administration of 26, 29, 30, and 31 at 30 mg/kg. […] For the Irwin test, each rat was individually placed in a transparent cage (26 × 41 cm), and 26 neurobehavioral or physiological parameters were systematically assessed according to Irwin (1968)[55] and already reported by Berrino and colleagues in similar studies.[30] Behavioral, autonomic, and neurological manifestations produced by compound administration in rats were evaluated: motor displacement, motor reflexes, stereotypies, grooming, reaction to painful or environmental stimuli (analgesia and irritability), startle response, secretions, excretions, respiratory movements, skin color and temperature, piloerection, exophthalmos, eyelid and corneal reflexes, muscle tone, ataxia, tremors, head twitches, jumps, convulsions, Straub tail, and other signs or symptoms. For postural reflexes (righting reflex) and other signs such as piloerection, exophthalmia (exaggerated protrusion of the eyeball), ataxia, tremors, and Straub tail, only presence or absence was recorded. Skin color was evaluated qualitatively (pale, red, or purple); other signs were evaluated semiquantitatively, according to the observer’s personal scale (0 to +4, −4 to 0, or −4 to +4). The terms sedation and excitation express the final interpretation of a group of signs: reduced motor activity, reduced startle response, eyelid ptosis, and reduced response to manual manipulation, for the former; and increased motor activity, increased startle response, increased response to manual manipulation, and exophthalmia, for the latter. Hyperactivity includes running, jumping, and attempting to escape from the container. Trained observers were not informed about the specific treatment of each animal group carried out in this test.

[5] = per os, 3 13.23 mg/kg, 15 17.71 mg/kg

Compound: NS(=O)(=O)c1ccc(CCNCc2ccccc2)cc1 [Compound 4, 4-(2-(Benzylamino)ethyl)benzenesulfonamide]
- Ki (hCA IX [1]): 78.1 nM

Compound: NS(=O)(=O)c1ccc(CCNCc2ccc(F)cc2)cc1 [Compound 5, 4-(2-((4-Fluorobenzyl)amino)ethyl)benzenesulfonamide]
- Ki (hCA IX [1]): 56.5 nM
- SI CA I/XII (hCA XII): 1.9
- SI CA II/XII (hCA XII): 1.3
- SI CA I/IV (hCA IV): 0.09
- SI CA II/IV (hCA IV): 0.06
- SI CA I/IX (hCA IX [2]): 2.0
- SI CA II/IX (hCA IX [2]): 1.4
- SI CA I/II (hCA II): 1.4

Compound: NS(=O)(=O)c1ccc(CCN(Cc2cccc3ccccc23)C(=O)c2ccc(-c3cssc3=S)cc2)cc1 [Compound 30, N-(Naphthalen-1-ylmethyl)-N-(4-sulfamoylphenethyl)-4-(3-thioxo-3H-1,2-dithiol-4-yl)benzamide]
- effect of the lowest dose, Incapacitance test ([3]; 1 mg/kg per os): ineffective
- reduction of spontaneous pain, Incapacitance test [3]: slightly greater efficacy at 10 mg/kg in comparison to the dose of 30 mg/kg
- antihyperalgesic effect, Paw pressure test, 1 mg/kg [4]: ineffective
- antihyperalgesic effect, Paw pressure test, 30 mg/kg ([4]; 30 mg/kg per os, day 14 after CFA): greater antihyperalgesic action with respect to 3, 15, and their co-administration
- weight tolerated on the ipsilateral paw, Paw pressure test, 10 and 30 mg/kg [4]: significantly increased the weight tolerated
- SI CA I/XII (hCA XII): >1428
- SI CA II/XII (hCA XII): 637
- SI CA I/IV (hCA IV): >41.0
- SI CA II/IV (hCA IV): 18.3
- Irwin test: Cyanosis (rats): 0
- Irwin test: Exolphthalmos (rats): 0
- Irwin test: Flush (rats): 0
- Irwin test: Lacrimation (rats): 0
- Irwin test: Pallor (rats): 0
- Irwin test: Piloerection (rats): 0
- Irwin test: Salivation (rats): 0
- Irwin test: Writhing (rats): 0
- Irwin test: Palpebral opening (rats): 4
- Irwin test: Hypo-hyperthermia (rats): 0
- Irwin test: Passivity (rats): 0
- Irwin test: Vocalization (rats): 0
- Irwin test: Cleaning (rats): 0
- Irwin test: Curiosity (rats): 4
- Irwin test: Reactivity (rats): 4
- Irwin test: Spontaneous activity (rats): 4
- Irwin test: Ataxia (rats): 0
- Irwin test: Stereotipies (rats): 0
- Irwin test: Straightening reflex (rats): 4
- Irwin test: Physical strenght (rats): 4
- Irwin test: Palpebral reflex (rats): 4
- Irwin test: Straub tail (rats): 0
- Irwin test: Tremors (rats): 0
- Irwin test: Convulsions (rats): 0
- Irwin test: Delayed death (48 h) (rats): 0
- Irwin test: Immediate death (rats): 0
- SI CA I/IX (hCA IX [2]): >641
- SI CA II/IX (hCA IX [2]): 286

Compound: NS(=O)(=O)c1ccc(CCN(Cc2csc3ccccc23)C(=O)c2ccc(-c3cssc3=S)cc2)cc1 [Compound 31, N-(Benzo[b]thiophen-3-ylmethyl)-N-(4-sulfamoylphenethyl)-4-(3-thioxo-3H-1,2-dithiol-4-yl)benzamide]
- reduction of spontaneous pain, Incapacitance test [3]: reduced spontaneous pain in a dose-dependent manner
- antihyperalgesic effect, Paw pressure test, 1 mg/kg [4]: ineffective
- weight tolerated on the ipsilateral paw, Paw pressure test, 10 and 30 mg/kg [4]: significantly increased the weight tolerated
- SI CA I/XII (hCA XII): >1204
- SI CA II/XII (hCA XII): 299
- SI CA I/IV (hCA IV): >208
- SI CA II/IV (hCA IV): 52 and 51.7
- Irwin test: Cyanosis (rats): 0
- Irwin test: Exolphthalmos (rats): 0
- Irwin test: Flush (rats): 0
- Irwin test: Lacrimation (rats): 0
- Irwin test: Pallor (rats): 0
- Irwin test: Piloerection (rats): 0
- Irwin test: Salivation (rats): 0
- Irwin test: Writhing (rats): 0
- Irwin test: Palpebral opening (rats): 4
- Irwin test: Hypo-hyperthermia (rats): 0
- Irwin test: Passivity (rats): 0
- Irwin test: Vocalization (rats): 0
- Irwin test: Cleaning (rats): 0
- Irwin test: Curiosity (rats): 4
- Irwin test: Reactivity (rats): 4
- Irwin test: Spontaneous activity (rats): 4
- Irwin test: Ataxia (rats): 0
- Irwin test: Stereotipies (rats): 0
- Irwin test: Straightening reflex (rats): 4
- Irwin test: Physical strenght (rats): 4
- Irwin test: Palpebral reflex (rats): 4
- Irwin test: Straub tail (rats): 0
- Irwin test: Tremors (rats): 0
- Irwin test: Convulsions (rats): 0
- Irwin test: Delayed death (48 h) (rats): 0
- Irwin test: Immediate death (rats): 0
- SI CA I/IX (hCA IX [2]): >4167

Further lines, with some results ahead:

- SI CA I/XII (hCA XII): 2.9
- SI CA II/XII (hCA XII): 1.6
- SI CA I/IV (hCA IV): 0.1
- SI CA II/IV (hCA IV): 0.07
- SI CA I/IX (hCA IX [2]): 2.5
- SI CA II/IX (hCA IX [2]): 1.4
- SI CA I/II (hCA II): 1.9
Compound: NS(=O)(=O)c1ccc(CCNCc2ccc([N+](=O)[O-])cc2)cc1 [Compound 10, 4-(2-((4-Nitrobenzyl)amino)ethyl)benzenesulfonamide]
- Ki (hCA IX [1]): 89.2 nM

- Ki (hCA XII): 54.7 nM
- SI CA I/XII (hCA XII): 4.8
- SI CA II/XII (hCA XII): 3.2
- Ki (hCA IV): 3010 nM
- SI CA II/IV (hCA IV): 0.06
- Ki (hCA I): 261 nM
- SI CA I/IX (hCA IX [2]): 5.8
- SI CA II/IX (hCA IX [2]): 4.0
- Ki (hCA II): 178 nM
- SI CA I/II (hCA II): 1.5
Compound: NS(=O)(=O)c1ccc(CCNCc2cccc3ccccc23)cc1 [Compound 15, 4-(2-((Naphthalen-1-ylmethyl)amino)ethyl)benzenesulfonamide]
- antihyperalgesic effect, Incapacitance test, dose equimolar to 30 30 mg/kg [3, 5]: absence of effects detected in vivo
- antihyperalgesic effect, Paw pressure test, dose equimolar to 30 30 mg/kg [4, 5]: very weak antihyperalgesic action

- SI CA I/XII (hCA XII): 2.6
- SI CA II/XII (hCA XII): 0.9
- SI CA II/IV (hCA IV): 0.02
- SI CA I/IX (hCA IX [2]): 2.7
- SI CA I/II (hCA II): 3.1
Compound: NS(=O)(=O)c1ccc(CCNCCc2ccccc2)cc1 [Compound 17, 4-(2-(Phenethylamino)ethyl)benzenesulfonamide]
- Ki (hCA IX [1]): 102 nM

Reference: article PMC9574929, “Development of Hydrogen Sulfide-Releasing Carbonic Anhydrases IX- and XII-Selective Inhibitors with Enhanced Antihyperalgesic Action in a Rat Model of Arthritis” (Journal of Medicinal Chemistry, 2022)
